Experimental data reported in PMC8329197, “Compounds targeting OSBPL7 increase ABCA1-dependent cholesterol efflux preserving kidney function in two models of kidney disease” (Nature Communications, 2021).
Several values for one entry are separate records, joined by “and”; a condition that tells them apart may be missing. Identical values can stand only once.

Columns and labels:
human podocytes = test: apoAI-mediated cholesterol efflux in human podocytes; format: cell-based
Method: Cell lines were purchased from ATCC and subcultured for no more than passage 15, except for human podocytes, which were originally from Dr Jochen Reiser. Conditionally immortalized human podocytes were cultured under permissive conditions at 33 °C, in RPMI medium (Corning) containing 10% FBS (GIBCO), 1% penicillin/streptomycin, 0.01 mg/ml recombinant human insulin, 0.0055 mg/ml human transferrin (substantially iron-free), and 0.005 μg/ml sodium selenite (ITS, Corning). To induce differentiation, podocytes were cultured at 37 °C for 14 days in RPMI medium containing 10% FBS (GIBCO) and 1% penicillin/streptomycin. Differentiated podocytes were starved in RPMI-0.2% FBS for 18 h and then treated with 1 μM, 5 μM, and 10 μM of compounds freshly prepared in DMSO for 18 h at 37 °C as indicated.
Human podocytes differentiated for 13 days were labeled for 24 h at 37 °C in RPMI medium containing 2% FBS and [^3H]-cholesterol (1 μCi/ml, American Radiolabeled Chemicals). Cells were then washed 3 times with PBS and incubated with RPMI supplemented with 0.2% fat free-BSA (Sigma) with or without compounds for 18-h at 37 °C. The compounds were used at the following concentrations: Cpd C (1 μM), Cpd A (1 μM, 5 μM) and Cpd G (1 μM, 5 μM, 10 μM). Following the 18-h incubation, human apoAI (Calbiochem) was added to the media, (20 μg/mL final concentration) and the cells were incubated for another 18 h at 37 °C. Aliquots of medium collected before (T = 0 h) and after (T = 18 h) the addition of apoAI were centrifuged at 12,000 × g for 5 min and the radioactivity in the supernatant was counted by liquid scintillation. Cells were then washed with PBS, lysed 0.1% SDS, 0.1M NaOH and the radioactivity in the lysates was quantified by liquid scintillation. apoAI-mediated cholesterol efflux, expressed as %, was calculated as the amount of label released to the medium after adding apoAI (the difference in radioactivity in the medium before and after adding ApoA1) divided by the amount of total label in each well (radioactivity released to the media plus radioactivity in the lysed cells).

[1] = test system: Adriamycin (ADR)-induced nephropathy in Balb/c mice; test: ADR nephropathy: serum cholesterol and triglycerides; format: in vivo, mouse
[2] = test system: Adriamycin (ADR)-induced nephropathy in Balb/c mice; test: ADR nephropathy: WBC, hemoglobin, hematocrit, ALT, AST; format: in vivo, mouse; details: ADR-induced nephropathy
[3] = test system: Adriamycin (ADR)-induced nephropathy in Balb/c mice; test: ADR nephropathy: blood urea nitrogen (BUN) and serum creatinine; format: in vivo, mouse; details: 28 days treatment
Description: Supplement 41467_2021_24890_MOESM5_ESM.xlsx, sheet "Supplementary Table 4" | column: ADR+ Cpd A; ADR+ Cpd G; ADR+ Cpd C

[4] = ADR-injected mice, 28-day treatment, 25th quartile
[5] = ADR-injected mice, 28-day treatment, 75th quartile
[6] = ADR-injected mice, 28-day treatment, group maximum
[7] = ADR-injected mice, 28-day treatment, group median
[8] = ADR-injected mice, 28-day treatment, group minimum
[9] = ADR-injected mice, 28-day treatment, individual mouse values
[10] = 28 days treatment, 25th quartile
[11] = 28 days treatment, 75th quartile
[12] = 28 days treatment, group maximum
[13] = 28 days treatment, group median
[14] = 28 days treatment, group minimum
[15] = 28 days treatment, individual mouse values

Cc1oc(-c2cccc(C(F)(F)F)c2)nc1Cn1c(C)cc2cc(C(O)(C(F)(F)F)C(F)(F)F)ccc21 [Cpd C, reference compound]
ApoA1-mediated cholesterol efflux (%) in podocytes (human podocytes; 1 uM, single experiments): 4.5% and 5% and 2.7% and 7.8% and 4.9% and 4.1% and 8.1%
Increase in apoAI-mediated cholesterol efflux vs. untreated cells (human podocytes; Cpd G 10 µM, Cpd A 5 µM, Cpd C 1 µM): ~2 fold
SERUM CHOLESTEROL ([1]; ADR model, individual animals): 104 and 64 and 223 and 112 and 98 and 124 and 145 and 136 and 60
SERUM TRIGLYCERIDES ([1]; ADR model, individual animals): 57 and 182 and 112 and 55 and 91 and 62 and 66 and 44
Serum cholesterol, QR(25) [1, 4]: 98 mg/dL
Serum triglycerides, QR(25) [1, 4]: 57 mg/dL
Serum cholesterol, QR(75) [1, 5]: 136 mg/dL
Serum triglycerides, QR(75) [1, 5]: 91 mg/dL
Serum cholesterol, Max [1, 6]: 223 mg/dL
Serum triglycerides, Max [1, 6]: 182 mg/dL
Serum cholesterol, Median [1, 7]: 112 mg/dL
Serum triglycerides, median [1, 7]: 62 mg/dL
Serum cholesterol, Min [1, 8]: 60 mg/dL
Serum triglycerides, Min [1, 8]: 44 mg/dL
SERUM CHOLESTEROL [1, 9]: 64 mg/dL and 223 mg/dL and 112 mg/dL and 98 mg/dL and 124 mg/dL and 145 mg/dL and 136 mg/dL and 60 mg/dL and 104 mg/dL
SERUM TRIGLYCERIDES [1, 9]: 57 mg/dL and 62 mg/dL and 66 mg/dL and 44 mg/dL and 182 mg/dL and 112 mg/dL and 55 mg/dL and 91 mg/dL
Cholesterol (mg/dL), Median(IQR) ([1]; serum, after ADR challenge): 112(81-141) mg/dL
Cholesterol (mg/dL), Range ([1]; serum, after ADR challenge): 60 to 223 mg/dL
Cholesterol, % of the group> 112 mg/dL ([1]; serum, after ADR challenge): 30%
Triglycerides (mg/dL), Median(IQR) ([1]; serum, after ADR challenge): 62(56-102) mg/dL
Triglycerides (mg/dL), Range ([1]; serum, after ADR challenge): 44 to 182 mg/dL
ALT, Median (IQR) [2]: 146 (71-682) U/L
ALT, Range [2]: 68-838 U/L
AST, Median (IQR) [2]: 165 (104-371) U/L
AST, Range [2]: 90-433 U/L
HTC, Median (IQR) [2]: 55 (45-64) %
HTC, Range [2]: 43-65%
Hgb, Median (IQR) [2]: 13.3 g/dL
Hgb, Range [2]: 11 to 15.9 g/dL
WBC, Median (IQR) [2]: 6.2 (5.5-7.9) x103cells/µL
WBC, Range [2]: 5.4-8.3 x103cells/µL
ALT, QR(25) [2, 10]: 76.25 U/L
AST, QR(25) [2, 10]: 131.25 U/L
HTC, QR(25) [2, 10]: 46%
Hgb, QR(25) [2, 10]: 12.5 g/dL
WBC, QR(25) [2, 10]: 6.4 x 10^3 cells/ul
ALT, QR(75) [2, 11]: 369.25 U/L
AST, QR(75) [2, 11]: 246.25 U/L
HTC, QR(75) [2, 11]: 64%
Hgb, QR(75) [2, 11]: 15.4 g/dL
WBC, QR(75) [2, 11]: 10.3 x 10^3 cells/ul
ALT, Max [2, 12]: 838 U/L
AST, Max [2, 12]: 433 U/L
HTC, Max [2, 12]: 65%
Hgb, Max [2, 12]: 15.9 g/dL
WBC, Max [2, 12]: 11.6 x 10^3 cells/ul
ALT, Median [2, 13]: 146 U/L
AST, Median [2, 13]: 164.5 U/L
HTC, Median [2, 13]: 55%
Hgb, Median [2, 13]: 13.3 g/dL
WBC, Median [2, 13]: 6.7 x 10^3 cells/ul
ALT, Min [2, 14]: 68 U/L
AST, Min [2, 14]: 90 U/L
HTC, Min [2, 14]: 43%
Hgb, Min [2, 14]: 11 g/dL
WBC, Min [2, 14]: 5.4 x 10^3 cells/ul
Alanine Aminotransferase (ALT) [2, 15]: 213 U/dL and 68 U/dL and 79 U/dL and 838 U/dL
Aspartate Aminotransferase (AST) [2, 15]: 184 U/dL and 90 U/dL and 145 U/dL and 433 U/dL
Hematocrit HTC [2, 15]: 64% and 65% and 55% and 46% and 43% and 44%
White Blood Cells WBC [2, 15]: 10.3 x 10^3 cells/ul and 6.7 x 10^3 cells/ul and 6.5 x 10^3 cells/ul and 5.9 x 10^3 cells/ul and 5.4 x 10^3 cells/ul and 8.3 x 10^3 cells/ul and 6.4 x 10^3 cells/ul and 11.6 x 10^3 cells/ul
BUN, QR(25) ([3]; 25th quartile): 16 mg/dL
sCre, QR(25) ([3]; 25th quartile): 0.09 mg/dL
BUN, QR(75) ([3]; 75th quartile): 20 mg/dL
sCre, QR(75) ([3]; 75th quartile): 0.16 mg/dL
BUN, Max ([3]; group maximum): 51 mg/dL
sCre, Max ([3]; group maximum): 0.47 mg/dL
BUN, Median ([3]; group median): 17 mg/dL
sCre, Median ([3]; group median): 0.12 mg/dL
BUN, Min ([3]; group minimum): 13 mg/dL
sCre, Min ([3]; group minimum): 0.09 mg/dL
Blood Urea nitrogen (BUN) ([3]; individual mouse values): 13 mg/dL and 32 mg/dL and 18 mg/dL and 16 mg/dL and 20 mg/dL and 51 mg/dL and 17 mg/dL
Serum Creatinine sCre ([3]; individual mouse values): 0.16 mg/dL and 0.47 mg/dL and 0.12 mg/dL and 0.09 mg/dL and 0.29 mg/dL and 0.14 mg/dL
